target: T1, cIAP-1 BIR-3 (Homo sapiens, UniProt Q13490); experiment: Fluorescence polarization binding to cIAP-1 BIR-3 (competition with AbuRPF-K(5-Fam)-NH2); conditions: cells marked (cIAP-1): cIAP-1 BIR-3; reported as range class
T1 construct: "cIAP-1 BIR-3"
Description: (§1) The binding affinities of the compounds are reported as a Kd value. Briefly, various concentrations of test peptides were mixed with 5 nM of the fluorescently labeled peptide (i.e., a mutated N-terminal Smac peptide—AbuRPF-K(5-Fam)-NH2) and 40 nM of the BIR3 for 15 min at RT in […] of 0.1M Potassium Phosphate buffer, pH 7.5 containing […] bovine g-globulin. Following incubation, the polarization values (mP) were measured on a Victor2V (available from PerkinElmer Life Sciences) using a 485 nm excitation filter and a 520 nm emission filter. The reported Kd values are supplied as ranges (A=<0.1 μM, B=0.1 μM to C=>1 μM to 10 μM, D=>10 μM) and, unless otherwise indicated, are the Kd for XIAP BIR-3.

T1 sequence (Q13490 266-343 limits assumed): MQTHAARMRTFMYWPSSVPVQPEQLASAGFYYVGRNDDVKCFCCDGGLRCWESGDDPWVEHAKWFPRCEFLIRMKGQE

SMILES | Kd
CCN[C@@H](C)C(=O)N[C@H](C(=O)N1CC[C@H](O)[C@H]1Cc1c[nH]c2ncccc12)C(C)(C)C [AA] | < 100 nM
CCc1ccc2c(c1)[C@@H](C[C@@H]1C[C@H](O)CN1C(=O)[C@@H](NC(=O)[C@H](C)NC)C1CCCCC1)CN2C(C)=O [BBBB] | > 100 nM
CN[C@@H](C)C(=O)N[C@H](C(=O)N1CC[C@H](O)[C@H]1Cc1c[nH]c2ncccc12)[C@@H](C)OC [BB] | < 100 nM
CC[C@H](NC)C(=O)N[C@H](C(=O)N1CC[C@H](O)[C@H]1Cc1c(Cl)[nH]c2cc(F)ccc12)[C@@H](C)OC [BB′] | < 100 nM
CCN[C@@H](C)C(=O)N[C@H](C(=O)N1C[C@@H](O)C[C@H]1C[C@H]1CN(C(C)=O)c2ccc(CC)cc21)C1CCCCC1 [CCCC] | > 100 nM
CCN[C@@H](C)C(=O)N[C@H](C(=O)N1CC[C@@H](O)[C@H]1Cc1c(-c2ccc(F)cc2)[nH]c2ccccc12)[C@@H](C)O [CCC] | < 100 nM
CCN[C@@H](C)C(=O)N[C@H](C(=O)N1CC[C@H](O)[C@H]1Cc1c[nH]c2ncccc12)[C@@H](C)OC [CC] | < 100 nM

target: T2, XIAP BIR-3 (Homo sapiens, UniProt P98170); experiment: Fluorescence polarization binding to XIAP BIR-3 (competition with AbuRPF-K(5-Fam)-NH2); conditions: XIAP BIR-3 (default where cell does not indicate otherwise); reported as range class
T2 construct: 40 nM of the BIR3 for 15 min at RT
T2 sequence (P98170 241-356 limits assumed): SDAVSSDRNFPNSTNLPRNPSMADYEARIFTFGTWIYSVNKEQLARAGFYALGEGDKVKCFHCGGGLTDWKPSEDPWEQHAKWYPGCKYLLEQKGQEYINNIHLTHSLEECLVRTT
Description: as §1

SMILES | Kd
CN[C@@H](C)C(=O)N[C@H](C(=O)N1CC[C@H](O)[C@H]1Cc1c[nH]c2cc(F)ccc12)[C@@H](C)OC (relative stereo) [RR, trans-2R—[N-{1-[2-(6-Fluoro-1H-indol-3-ylmethyl)-3-hydroxy-pyrrolidine-1-carbonyl]-2-methoxy-propyl}]-2-methylamino-propionamide] | < 100 nM
CCN[C@@H](C)C(=O)N[C@H](C(=O)N1CC[C@H](OC)[C@H]1Cc1cn(C)c2cc(F)ccc12)[C@@H](C)OC [A′] | > 100 nM
CN[C@@H](C)C(=O)N[C@H](C(=O)N1CC[C@@H](O)[C@H]1Cc1c(-c2ccc(F)cc2)[nH]c2ccccc12)C(C)C [BBB] | < 100 nM
CC[C@H](NC)C(=O)N[C@H](C(=O)N1C[C@@H](O)C[C@H]1Cc1c[nH]c2ncccc12)C1CCCCC1 [B] | < 100 nM
CN[C@@H](C)C(=O)N[C@H](C(=O)N1CC[C@H](OC)[C@H]1Cc1cn(C)c2cc(F)ccc12)[C@@H](C)OC [B′] | < 100 nM
CN[C@@H](C)C(=O)N[C@H](C(=O)N1C[C@@H](O)C[C@H]1Cc1c[nH]c2ncccc12)[C@@H](C)OC [Compound A, N-{1-[4-Hydroxy-2-(1H-pyrrolo[2,3-b]pyridin-3-ylmethyl)-pyrrolidine-1-carbonyl]-2-methoxy-propyl}-2-methylamino-propionamide] | < 100 nM
CCN[C@@H](CC)C(=O)N[C@H](C(=O)N1CCC[C@H]1Cc1c[nH]c2c1ccc[n+]2[O-])[C@@H](C)OC [Compound R] | > 100 nM
CN[C@@H](C)C(=O)N[C@H](C(=O)N1CCC[C@H]1Cc1c[nH]c2ncccc12)[C@@H](C)OC [D] | < 100 nM
CC[C@H](NC)C(=O)N[C@H](C(=O)N1CC[C@H](OC)[C@H]1Cc1c[nH]c2cc(F)ccc12)[C@@H](C)OC [D′] | > 10000 nM
CC[C@H](NC)C(=O)N[C@H](C(=O)N1CC[C@@H](O)[C@H]1Cc1c[nH]c2ccccc12)[C@@H](C)O [EE′] | < 100 nM
CN[C@@H](C)C(=O)N[C@H](C(=O)N1CCC[C@H]1Cc1c[nH]c2ncccc12)C(C)(C)C [E] | < 100 nM
CN[C@@H](C)C(=O)N[C@H](C(=O)N1CC[C@@H](O)[C@H]1Cc1c[nH]c2ccccc12)[C@@H](C)O [FF′] | < 100 nM
CCN[C@@H](C)C(=O)N[C@H](C(=O)N1CC[C@H](OC)[C@H]1Cc1c[nH]c2ncccc12)C(C)(C)C [GG] | 1000 to 10000 nM
CCN[C@@H](CC)C(=O)N[C@H](C(=O)N1CCC[C@H]1Cc1c[nH]c2ncccc12)[C@@H](C)OC [G] | < 100 nM
CCN[C@@H](C)C(=O)N[C@H](C(=O)N1CC[C@H](OC)[C@H]1Cc1c[nH]c2cc(F)ccc12)[C@@H](C)OC [G′] | > 10000 nM
CCN[C@@H](C)C(=O)N[C@H](C(=O)N1CC[C@H](OC)[C@H]1Cc1c[nH]c2ncccc12)[C@@H](C)OC [HH] | 1000 to 10000 nM
CC[C@H](NC)C(=O)N[C@H](C(=O)N1CC[C@@H](O)[C@H]1Cc1c[nH]c2ccccc12)[C@@H](C)OC [HH′] | < 100 nM
CCN[C@@H](C)C(=O)N[C@H](C(=O)N1CCC[C@H]1Cc1c[nH]c2ncccc12)[C@@H](C)OC [H] | < 100 nM
CN[C@@H](C)C(=O)N[C@H](C(=O)N1CC[C@H](OC)[C@H]1Cc1c[nH]c2cc(F)ccc12)C(C)(C)C [H′] | > 10000 nM
CCN[C@@H](C)C(=O)N[C@H](C(=O)N1CC[C@H](OC)[C@H]1Cc1c[nH]c2ncccc12)C(C)C [II] | 1000 to 10000 nM
CN[C@@H](C)C(=O)N[C@H](C(=O)N1CC[C@@H](O)[C@H]1Cc1c[nH]c2ccccc12)[C@@H](C)OC [II′] | < 100 nM
CCNCC(=O)N[C@H](C(=O)N1CCC[C@H]1Cc1c[nH]c2ncccc12)[C@@H](C)OC [I] | > 100 nM
CN[C@@H](C)C(=O)N[C@H](C(=O)N1CC[C@H](C)[C@H]1Cc1c[nH]c2cc(F)ccc12)[C@@H](C)OC [JJ, N-{1-{1-2-(6-fluoro-1H-indol-3-ylmethyl)-3-methyl-pyrrolidine-1-carbonyl]-2-methoxy-propyl}-2-methylamino-propionamide] | > 100 nM
CN[C@@H](C)C(=O)N[C@H](C(=O)N1CC[C@@H](O)[C@H]1Cc1c(-c2ccc(F)cc2)[nH]c2ccccc12)C1CCCCC1 [KKK] | > 100 nM
CC[C@H](NC)C(=O)N[C@H](C(=O)N1CC[C@H](C)[C@H]1Cc1c[nH]c2cc(F)ccc12)[C@@H](C)OC [KK] | > 10000 nM
CN[C@@H](CO)C(=O)N[C@H](C(=O)N1CC[C@H](C)[C@H]1Cc1c[nH]c2cc(F)ccc12)[C@@H](C)OC [LL] | > 10000 nM

SMILES | Kd
CN[C@@H](C)C(=O)N[C@H](C(=O)N1CC[C@@H](O)[C@H]1Cc1c[nH]c2ccccc12)C1CCCCC1 [LL′, N-{1-Cyclohexyl-2-[3-hydroxy-2-(1H-indol-3-ylmethyl)-pyrrolidin-1-yl]-2-oxo-ethyl}-2-methylamino-propionamide] | < 100 nM
CN[C@@H](C)C(=O)N[C@H](C(=O)N1CC[C@H](OC)[C@H]1Cc1c[nH]c2cc(F)ccc12)[C@@H](C)OC [L′] | > 10000 nM
CCN[C@@H](C)C(=O)N[C@H](C(=O)N1CC[C@H](C)[C@H]1Cc1c[nH]c2cc(F)ccc12)[C@@H](C)OC [MM] | 1000 to 10000 nM
CN[C@@H](C)C(=O)N[C@H](C(=O)N1CC[C@H](C)[C@H]1Cc1c[nH]c2cc(F)ccc12)[C@@H](C)O [NN] | 1000 to 10000 nM
CCNCC(=O)N[C@H](C(=O)N1CCC[C@H]1Cc1c[nH]c2ncccc12)C(C)(C)C [N] | 1000 to 10000 nM
CN[C@@H](C)C(=O)N[C@H](C(=O)N1CC[C@H](OC)[C@H]1Cc1c(Cl)[nH]c2cc(F)ccc12)[C@@H](C)O [N′] | > 100 nM
CN[C@@H](CO)C(=O)N[C@H](C(=O)N1CCC[C@H]1Cc1c[nH]c2ncccc12)C(C)(C)C [O] | < 100 nM
CC[C@H](NC)C(=O)N[C@H](C(=O)N1CC[C@H](OC)[C@H]1Cc1c(Cl)[nH]c2cc(F)ccc12)[C@@H](C)O [O′] | > 100 nM
CN[C@@H](CO)C(=O)N[C@H](C(=O)N1CC[C@H](C)[C@H]1Cc1c[nH]c2cc(F)ccc12)[C@@H](C)O [PP] | > 10000 nM
CN[C@@H](C)C(=O)N[C@H](C(=O)N1CCC[C@H]1Cc1c[nH]c2c1ccc[n+]2[O-])[C@@H](C)OC [P] | < 100 nM
CN[C@@H](C)C(=O)N[C@H](C(=O)N1CC[C@H](OC)[C@H]1Cc1c(Cl)[nH]c2cc(F)ccc12)[C@@H](C)OC [P′] | < 100 nM
CCN[C@@H](C)C(=O)N[C@H](C(=O)N1CC[C@H](C)[C@H]1Cc1c[nH]c2cc(F)ccc12)[C@@H](C)O [QQ] | > 10000 nM
CCN[C@@H](C)C(=O)N[C@H](C(=O)N1CCC[C@H]1Cc1c[nH]c2c1ccc[n+]2[O-])[C@@H](C)OC [Q] | > 100 nM
CC[C@H](NC)C(=O)N[C@H](C(=O)N1CC[C@H](OC)[C@H]1Cc1c(Cl)[nH]c2cc(F)ccc12)[C@@H](C)OC [Q′] | > 100 nM
CCN[C@@H](C)C(=O)N[C@H](C(=O)N1CC[C@H](OC)[C@H]1Cc1c(Cl)[nH]c2cc(F)ccc12)[C@@H](C)OC [R′] | > 100 nM
CN[C@@H](C)C(=O)N[C@H](C(=O)N1CCC[C@H]1Cc1c[nH]c2c1ccc[n+]2[O-])C(C)(C)C [S] | < 100 nM
CN[C@@H](CO)C(=O)N[C@H](C(=O)N1CC[C@H](OC)[C@H]1Cc1c(Cl)[nH]c2cc(F)ccc12)[C@@H](C)OC [S′] | 1000 to 10000 nM
CC[C@H](NC)C(=O)N[C@H](C(=O)N1CC[C@H](O)[C@H]1Cc1c[nH]c2cc(F)ccc12)[C@@H](C)OC [TT] | < 100 nM
CC[C@H](NC)C(=O)N[C@H](C(=O)N1CCC[C@H]1Cc1cn(C)c2ncccc12)[C@@H](C)OC [T] | < 100 nM
CN[C@@H](C)C(=O)N[C@H](C(=O)N1CC[C@H](O)[C@H]1Cc1c[nH]c2cc(F)ccc12)C(C)(C)C [UU] | < 100 nM
CN[C@@H](C)C(=O)N[C@H](C(=O)N1CCC[C@H]1Cc1cn(C)c2ncccc12)[C@@H](C)OC [U] | < 100 nM
CC[C@H](NC)C(=O)N[C@H](C(=O)N1CC[C@H](O)[C@H]1Cc1c[nH]c2cc(F)ccc12)C(C)(C)C [VV] | < 100 nM
CN[C@@H](C)C(=O)N[C@H](C(=O)N1CC[C@H](O)[C@H]1Cc1cn(C)c2cc(F)ccc12)[C@@H](C)OC [YY] | < 100 nM
CN[C@@H](C)C(=O)N[C@H](C(=O)N1CCC[C@H]1Cc1c(-c2ccccc2)n(C)c2ncccc12)[C@@H](C)OC [Y] | < 100 nM
CCN[C@@H](C)C(=O)N[C@H](C(=O)N1CC[C@H](O)[C@H]1Cc1cn(C)c2cc(F)ccc12)[C@@H](C)OC [ZZ] | < 100 nM

Source: US20110288116A1, “IAP INHIBITORS” (TETRALOGIC PHARMACEUITCAL CORPORATION, priority 2008, published 2011)
